The text below walks through data of patent US5696263A, “Antiviral acyclic phosphonomethoxyalkylsubstituted alkenyl and alkynyl purine and pyrimidine derivatives” (Institute of Organic Chemistry and Biochemistry of the …, priority 1994, dated 1997).

Each structure is given as a SMILES string. Like-named read-outs stand apart in the source and are kept apart here.

A short description of series [1]: cell growth inhibition assay in CEM-SS cells. The series is classed as cell-based. The note with it: human, cem-ss cells; 50 percent decrease in cell count vs control at day three (72 hours). On the procedure: (§1) The cytotoxicity of PMEG, (R)2'-vinyl-PMEG, (S)-2'-vinyl-PMEG and (R)-2'-azidomethyl-PMEG was also determined by the cell growth inhibition assay in CEM-SS cells.
(§2) *CC50 is the concentration of drug that causes a 50 percent decrease in
(§3) cell count as compared to the control at day three (72 hours).
(§4) 1. Choose proper range of the concentrations of the drug to be evaluated.
(§5) 2. Prepare the stock solutions of drugs in RPMI 1640 medium at 10× of the highest concentration needed in cell culture
(§6) 3. Make serial dilution of the 10× stock solutions with RPMI 1640 as needed, usually four different concentrations are used for each drug.
(§7) 4. Prepare CEM cell suspension at @5×10^4 cells/ml concentration
(§8) 5. To each 18 ml CEM cell suspension add 2 ml of properly diluted drug solution (from step 2 and 3) separately and mix well.
(§9) 6. For cell control, 2 ml of RPMI 1640 is added in place of the drug solutions.
(§10) 7. Two ml of the solutions from step 5 and 6 are dispensed in to the wells of 24-well plate as shown in the following diagram [drawing 14] 8. At time zero, cells in 4 wells from the control (no drug added) are counted
(§11) 9. At 24, 48, 72 and 96 hr post drug addition, both drug treated and control cells are counted
(§12) 10. All assay are done in duplicate, two 24-well plates are set up for each drug
(§13) 11. Cell counts obtained from drug treated cultures are compared to those from control cultures.
(§14) 12. The concentration of drug that causes a 50 percent of decrease of cell number as compared to the control at day three (72 hr) is assigned as the CC50 value of the drug.

The test system of series [2] is CEM-SS cells. Put plainly: cell growth inhibition assay in CEM-SS cells. It counts as cell-based. The note with it: values of Table 2. The method, then: as §1, §2, §3, §4, §5, §6, §7, §8, §9, §10, §11, §12, §13, §14
Series [3] relates to human immunodeficiency virus (HIV RF strain) in CEM-SS cells. Put plainly: XTT assay, anti-HIV RF activity in infected CEM-SS cells, six days post infection. As to conditions: for SI (Selectivity Index: Ratio of TD50 to ED50): HIV RF; for SI (Selectivity Index: Ratio of TD50 to ED50) / EC50: CEM-SS cells; for EC50: Human immunodeficiency virus 1, CEM-SS, 144 h, HIV RF strain, XTT assay, six days post infection, read-out: ED50 (the source's name); for anti-HIV potency and selectivity as compared to the other compounds: data in Table 1; for cell protection against HIV: over a broad concentration range. It counts as cell-based. The method, then: (§15) Compounds were evaluated for activity against human immunodeficiency virus (HIV RF strain obtained from Luc Montagnier, Institut Pasteur, Paris, France) in CEM-SS cells (P. L. Nara, et al., in AIDS Res. Human. Retroviruses, 1987, 3, 283-302) using the XTT assay described by O. S. Weislow, et al., in J. Natl. Cancer Instit., 1989, 81, 577-586. CEM-SS cells were obtained from Owen Weislow at the National Cancer Institute. Cells were exposed to HIV and cultured in microtiter plates in the presence of test compounds at concentrations of 0.32, 1, 3.16, 10, 31.6, 100, 316 and 1000 um. On day six post-infection, the antiviral effect was measured using the XTT assay in which an optical density (OD) reading is obtained at each drug concentration. The optical density reading is proportional to the number of viable cells. The relative optical density values were derived by dividing the sample observed optical density by the value obtained for the control. Assays run in infected cells show the antiviral effect of the test compounds, where an increase in the number of viable cells (higher OD reading) reflects the protective, antiviral activity of the compound. Assays run in uninfected cells provide a measure of cellular toxicity.
(§16) The antiviral effect is also expressed (see Table 1) as the concentration of compound which increases the number of viable cells in infected cultures to 50%, to that of the untreated, uninfected control cultures (ED50). The cellular toxicity is expressed as the concentration of compound which reduces the number of viable cells to 50%, to that of the untreated control (TD50). The selectivity index (SI) is the ratio of TD50 to ED50.
(§17) The anti-HIV activity and cellular toxicity of the test compounds are plotted in FIGS. 1-7 as a function of relative optical density versus increasing log concentrations of the test compounds (XTT assay). FIGS. 1-7 visually show the results of the relative anti-HIV activity of the test compounds on infected cells (--.circle-solid.--) and the cellular toxicity of the same test compound on uninfected cells (--.rect-solid.--).
Another estimate of the effectiveness of a compound for use against HIV in the prevention and/or treatment of AIDS is a selectivity index (an in vitro "therapeutic index"), the ratio of the toxic dose 50 to the effective dose 50. The selectivity index (SI) for (RS), (R)- and (S)-2'-vinyl-PMEG and (RS), (R), (S), -2'-azidomethyl-PMEG of the instant invention and for the comparison compound PMEG are shown in Table 1.
Anti-HIV RF Activity in CEM-Cells Evaluated by XTT Assay
Six Days Post Infection
(§18) ^a Effective Dose 50: In infected cells, concentration of compound
(§19) which results in an increase in the number of viable cells to 50% to that
^c Selectivity Index: Ratio of TD50 to ED50.

The test system of series [4] is human immunodeficiency virus LA BRU strain. The experiment in a line: XTT assay, anti-HIV activity with LAV BRU strain. The series is classed as cell-based. As to conditions: HIV LAV BRU strain (footnote e), read-out: ED50 (the source's name). The method, then:
as §15, §16, §18, §19
^e The compounds were evaluated using human immunodeficiency virus LA
BRU strain obtained from Luc Montagnier, Institut Pasteur, Paris, France.
(In general: Tetrazolium assays rely on reduction of a dye to a coloured formazan, in cell work by metabolically active cells.)

Series [5] relates to CEM-SS cells. The experiment in a line: XTT assay, cellular toxicity in uninfected CEM-SS cells. The note with it: compounds evaluated with HIV LAV BRU strain (footnote e), 8640 min, read-out: TD50 (the source's name). It counts as cell-based.
Test in series [6]: as above
The note with it: human, cem-ss cells. It counts as cell-based. The method, then:
as §15, §16, §17
(§20) ^b Toxic Dose 50: In uninfected cells, concentration of compound whic
(§21) results in a 50% decrease of viable cells.

Series [7] has as its system CEM-SS cells. The description is as above. The series is classed as cell-based. On the procedure:
as §15, §16, §17, §20, §21

A further series has as its system Moloney sarcoma virus. The note with it: experimental animals; cited from earlier work.
Series [8] has as its system simian immunodeficiency virus (SIV). As to conditions: experimental animals; cited from earlier work.
In another series the test system is HIV. The note with it: in tissue cultures; cited from earlier work.
The subject of another series is murine leukemia virus. As to conditions: experimental animals; cited from earlier work.
Another series has as its system MT2 cells. The experiment in a line: cellular toxicity in uninfected MT2 cells (Southern Research Institute). The series is classed as cell-based. As to conditions: Southern Research Institute (footnote g), read-out: TD50 (the source's name). The method, then:
as §20, §21
(§22) ^g The compound was evaluated by Southern Research Institute using
(§23) human immunodeficiency virus HTLVIIIB strain and MT2 cells (S. Harada, et

Series [9] concerns human immunodeficiency virus HTLVIIIB strain and MT2 cells. The experiment in a line: anti-HIV activity, HTLVIIIB strain in MT2 cells (Southern Research Institute). The series is classed as cell-based. As to conditions: Southern Research Institute (footnote g), read-out: ED50 (the source's name). On the procedure:
as §18, §19, §22, §23

In series [1], `C=C[C@@H](Cn1cnc2c(O)nc(N)nc21)OCP(=O)(O)O` [(S)-2'-vinyl-PMEG, (S)-9-[2-(phosphonomethoxy)-3-butenyl]guanine] displayed a CC50 at 72 h of 1600 µM. For the same molecule, in the series on CEM-SS cells [2], the “toxicity in CEM-SS cells when compared to PMEG” value (“toxicity … compared to PMEG” below) is given as “relatively non-toxic”. For the same molecule, in series [3] (at 100 μM, FIG. 2), the “protection from HIV in CEM-SS cells” value is on record as “complete protection”.
As to `[N-]=[N+]=NC[C@H](Cn1ccc(N)nc1=O)OCP(=O)(O)O` [(S)-2'-azidomethyl-PMEC, (S)-9-[3-azido-2-(phosphonomethoxy)propyl]cytosine], the EC50 in series [4] (8640 min) is more than 500 µM. Moreover, the CC50 in the series with CEM-SS cells [5] was more than 500 µM.
As for `[N-]=[N+]=NCC[C@@H](Cn1ccc(N)nc1=O)OCP(=O)(O)O` [(S)-2'-azidoethyl-PMEC, (S)-9-[4-azido-2-(phosphonomethoxy)butyl]cytosine], the EC50 in series [4] (8640 min) was more than 500 µM. In addition, the CC50 with CEM-SS cells [5] was more than 500 µM.
The molecule `[N-]=[N+]=NC[C@H](Cn1cnc2c(=O)[nH]c(N)nc21)OCP(=O)(O)O` [(S)-2'-azidomethyl-PMEG, (S)-9-[3-azido-2-(phosphonomethoxy)propyl]guanine] had a CC50 at 144 h in series [6] of more than 1000 µM. In series [3], the “SI (Selectivity Index: Ratio of TD50 to ED50)” value is reported as more than 20 and the EC50 was 51 µM.
`[N-]=[N+]=NCC[C@@H](Cn1cnc2c(O)nc(N)nc21)OCP(=O)(O)O` [(S)-2'-azidoethyl-PMEG, (S)-9-[4-azido-2-(phosphonomethoxy)butyl]guanine] displayed a CC50 at 144 h in series [6] of more than 500 µM. In addition, the EC50 in series [4] (Human immunodeficiency virus 1, CEM-SS, 144 h) is more than 500 µM.
With `C=C[C@@H](Cn1ccc(N)nc1=O)OCP(=O)(O)O` [(S)-2'-vinyl-PMEC, (S)-9-[2-(phosphonomethoxy)-3-butenyl]cytosine], the EC50 in series [4] (8640 min) is more than 500 µM. In addition, in the series on CEM-SS cells [5], the CC50 was more than 500 µM.
`C=C[C@H](Cn1cnc2c(O)nc(N)nc21)OCP(=O)(O)O` [(R)-2'-vinyl-PMEG, (R)-9-[2-(phosphonomethoxy)-3-butenyl]guanine]: the CC50 at 144 h in [6] is more than 1000 µM. For the same molecule, the observable cytotoxicity result with CEM-SS cells [7] is given as “no observable cytotoxicity”. Besides, the CC50 at 72 h in series [1] stood at 1600 µM. In addition, in the series with CEM-SS cells [2], the “toxicity … compared to PMEG” value is “relatively non-toxic”. Besides, the “protection from the human immunodeficiency virus in CEM-SS cells” value in series [3] (concentration range of 5 to 100 μM, FIG. 1) was “complete protection”. Besides, in [3], the “anti-HIV potency and selectivity as compared to the other compounds” value is “potent and selective anti-HIV agents”; the “cell protection against HIV” value was “cell protection against HIV over a broad concentration”.
Turning to `Nc1ncnc2c1ncn2CCOCP(=O)(O)O` [PMEA], in the series with Moloney sarcoma virus, the “effect on Moloney sarcoma virus” value is on record as “proven its effect”. In addition, the “effect on simian immunodeficiency virus (SIV)” value in series [8] was “proven its effect”. Moreover, in the series on HIV, the “effect on HIV” value is on record as “proven its effect”. For the same molecule, the “effect on murine leukemia virus” value in the series on murine leukemia virus was “proven its effect”.
As to `[N-]=[N+]=NC[C@@H](Cn1cnc2c(O)nc(N)nc21)OCP(=O)(O)O` [(R)-2'-azidomethyl-PMEG, (R)-9-[3-azido-2-(phosphonomethoxy)propyl]guanine], in [6], the CC50 at 144 h was more than 1000 µM. Moreover, the observable cytotoxicity result in the series with CEM-SS cells [7] is listed as “no observable cytotoxicity”. This molecule returned a CC50 at 72 h in [1] of 1400 µM. The “toxicity … compared to PMEG” value with CEM-SS cells [2] is “relatively non-toxic”. Moreover, in [3], the “SI (Selectivity Index: Ratio of TD50 to ED50)” value was more than 200; the EC50 amounted to 5 µM; the “anti-HIV potency and selectivity as compared to the other compounds” value was “potent and selective anti-HIV agents”; the “cell protection against HIV” value is listed as “cell protection against HIV over a broad concentration”.
For `C=CC(Cn1cnc2c(=O)[nH]c(N)nc21)OCP(=O)(O)O` (racemic) [(R,S)-2'vinyl-PMEG, (RS)-9-[2-(phosphonomethoxy)-3-butenyl]guanine], the CC50 at 144 h in series [6] was more than 1000 µM. For the same molecule, in series [3], the “SI (Selectivity Index: Ratio of TD50 to ED50)” value is more than 51 and the EC50 turned out to be 19.6 µM.
Take `Nc1nc2c(ncn2CCOCP(=O)(O)O)c(=O)[nH]1` [PMEG, 9-[2-(phosphonomethoxy)ethyl]guanine, reference compound]: in series [6], the CC50 at 144 h came to 15 µM. Besides, in the series with CEM-SS cells [7], the cellular toxicity result was “cellular toxicity of PMEG prevents protection from the virus”. Further, in series [1], the CC50 at 72 h is 2.4 µM. The “anti-HIV effect in CEM-SS cells” value in series [3] (FIG. 7) was “some anti-HIV effect”. Moreover, in series [3], the “SI (Selectivity Index: Ratio of TD50 to ED50)” value was 30 and the EC50 was found to be 0.2 µM.
In the case of `[N-]=[N+]=NCC(Cn1cnc2c(=O)[nH]c(N)nc21)OCP(=O)(O)O` (racemic) [(R,S)-2'-azidomethyl-PMEG, (RS)-9-[3-azido-2-(phosphonomethoxy)propyl]guanine], in series [6], the CC50 at 144 h was more than 1000 µM. Further, in series [3], the “SI (Selectivity Index: Ratio of TD50 to ED50)” value is on record as more than 125 and the EC50 worked out at 8 µM.
Take `Cc1cn(C[C@@H](CN=[N+]=[N-])OCP(=O)(O)O)c(=O)[nH]c1=O` [(S)-2'-azidomethyl-PMET, (S)-9-[3-azido-2-(phosphonomethoxy)propyl]thymine]: the CC50 in the series with MT2 cells is more than 500 µM. In addition, in [9], the EC50 was more than 500 µM.
